From publication PMC11237073, “Bisphenol S causes excessive estrogen synthesis by activating FSHR and the downstream cAMP/PKA signaling pathway” (Communications Biology, 2024)

Target: T1, follicle stimulating hormone receptor (FSHR) (Homo sapiens, UniProt P23945)
T1 sequence (P23945 18-695): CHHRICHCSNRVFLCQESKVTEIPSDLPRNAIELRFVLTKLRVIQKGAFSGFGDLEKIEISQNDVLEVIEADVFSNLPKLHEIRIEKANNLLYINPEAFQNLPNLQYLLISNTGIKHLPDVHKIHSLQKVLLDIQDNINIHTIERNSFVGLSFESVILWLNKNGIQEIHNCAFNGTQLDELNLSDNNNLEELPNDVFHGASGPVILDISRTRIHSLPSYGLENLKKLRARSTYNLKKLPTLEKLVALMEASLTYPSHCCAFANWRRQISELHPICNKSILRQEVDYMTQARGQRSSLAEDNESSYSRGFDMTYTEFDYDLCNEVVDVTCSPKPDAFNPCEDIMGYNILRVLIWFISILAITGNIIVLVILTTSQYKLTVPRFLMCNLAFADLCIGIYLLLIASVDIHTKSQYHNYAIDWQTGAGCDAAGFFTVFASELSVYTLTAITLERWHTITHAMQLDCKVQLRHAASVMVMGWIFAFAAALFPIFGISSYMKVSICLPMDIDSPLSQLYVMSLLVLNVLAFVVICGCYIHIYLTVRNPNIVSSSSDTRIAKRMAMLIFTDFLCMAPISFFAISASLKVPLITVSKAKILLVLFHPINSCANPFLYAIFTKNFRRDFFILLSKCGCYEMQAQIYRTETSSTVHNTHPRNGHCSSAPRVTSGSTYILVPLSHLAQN
Experiment: isothermal titration calorimetry (Nano ITC, […] BPS into […] FSHR, sequential two-site model)
Conditions: read-out: Value for specific binding site

SMILES: O=S(=O)(c1ccc(O)cc1)c1ccc(O)cc1 [BPS, bisphenol S]
- Kd: 183 µM
